Test results: paper PMC8900659 (Nature chemical biology, 2021)

Key:
[1] = system: NRAS mutant OCI-AML3 cells; assay: pERK Western blot; settings: 4 h; Palm M 10 μM, ABD957 500 nM, PD901 10 nM
KRAS mutant NB-4 cells = assay: pERK Western blot; settings: 4 h; Palm M 10 μM, ABD957 500 nM, PD901 10 nM
ABHD17-DKO cells = assay: pERK Western blot; assay type: cell-based, human; settings: OCI-AML3 ABHD17-DKO, 4 h
serine hydrolases = assay: in situ MS-ABPP in OCI-AML3 cells, global selectivity; settings: in situ 2 h; ABD957 500 nM, Palm M 10 μM, HDFP 20 μM
[2] = system: dynamically palmitoylated proteins; assay: MS-based global dynamic palmitoylation profiling in OCI-AML3 cells; settings: Palm M 10 μM, ABD957 500 nM, 1 h chase
[3] = system: wild type N-Ras palmitoylation; assay: MS-based dynamic palmitoylation profiling in NB-4 cells; assay type: cell-based, human
LYPLA1 = LYPLA1 (Homo sapiens, UniProt O75608); assay: in vitro MS-ABPP, OCI-AML3 proteome; assay type: biochemical; settings: 1 and 10 μM, 30 min, particulate fraction
ABHD17s = assay: in vitro MS-ABPP, OCI-AML3 proteome; assay type: biochemical, human; settings: 1 and 10 μM, 30 min, particulate fraction
LYPLA2 = LYPLA2 (Homo sapiens, UniProt O95372); assay: in vitro MS-ABPP, OCI-AML3 proteome; assay type: biochemical; settings: 1 and 10 μM, 30 min, particulate fraction
ABHD10 = target: T1, ABHD10 (Homo sapiens, UniProt Q9NUJ1); assay: in vitro MS-ABPP, OCI-AML3 proteome; assay type: biochemical; settings: 1 and 10 μM, 30 min, particulate fraction
T1 sequence (Q9NUJ1 53-306): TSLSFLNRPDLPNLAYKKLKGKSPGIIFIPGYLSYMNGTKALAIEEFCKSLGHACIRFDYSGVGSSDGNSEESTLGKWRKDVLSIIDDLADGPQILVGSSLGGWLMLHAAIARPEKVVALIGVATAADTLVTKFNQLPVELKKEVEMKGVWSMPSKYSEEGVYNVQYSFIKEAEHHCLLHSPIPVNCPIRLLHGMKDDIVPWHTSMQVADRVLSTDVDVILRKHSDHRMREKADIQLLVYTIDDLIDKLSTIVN

ABHD17A/B/C = assay: targeted MS-ABPP in situ time-course in ONK cells; assay type: cell-based, human; settings: 1 μM

Chain of LYPLA1 (O75608 whole entry): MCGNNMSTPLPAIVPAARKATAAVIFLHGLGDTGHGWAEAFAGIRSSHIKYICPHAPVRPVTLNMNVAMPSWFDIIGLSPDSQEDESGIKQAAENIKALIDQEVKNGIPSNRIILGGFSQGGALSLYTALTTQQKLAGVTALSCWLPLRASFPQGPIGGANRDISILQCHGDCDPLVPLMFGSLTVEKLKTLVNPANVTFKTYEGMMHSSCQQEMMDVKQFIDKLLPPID
Chain of LYPLA2 (O95372 whole entry): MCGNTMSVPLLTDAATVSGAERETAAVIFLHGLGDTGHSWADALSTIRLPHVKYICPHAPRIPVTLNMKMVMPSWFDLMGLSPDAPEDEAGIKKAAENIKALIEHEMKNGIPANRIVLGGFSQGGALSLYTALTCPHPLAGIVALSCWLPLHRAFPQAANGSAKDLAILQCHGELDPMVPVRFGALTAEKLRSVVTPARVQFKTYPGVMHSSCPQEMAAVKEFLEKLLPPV

**Q.** How did the ERK phosphorylation [1] turn out when `O=C(NOC[C@H](O)CO)c1ccc(F)c(F)c1Nc1ccc(I)cc1F` [PD901] was run?
**A.** blocked ERK phosphorylation in both cell lines

**Q.** And the ERK phosphorylation (KRAS mutant NB-4 cells)?
**A.** blocked ERK phosphorylation in both cell lines

**Q.** Which ERK phosphorylation (ABHD17-DKO cells) does the source give for `CCCCCCCCCC[C@@H]1C(=O)O[C@H]1CCCCS(=O)(=O)CCCN(C)C` [Palm M, Palmostatin M] here?
**A.** maintained similar activity

**Q.** And the “global serine hydrolase selectivity in cells” value (serine hydrolases)?
**A.** widespread serine hydrolase inhibition

**Q.** What about the ERK phosphorylation [1] of the same molecule?
**A.** substantially blocked

**Q.** What about the “stabilization of the 22 dynamically palmitoylated proteins” value [2] of the same molecule?
**A.** most of these proteins were stabilized

**Q.** And the ERK phosphorylation (KRAS mutant NB-4 cells)?
**A.** but not in KRAS mutant NB-4 cells

**Q.** And the “sensitivity of dynamic palmitoylation of wild type N-Ras” value [3]?
**A.** fully preserved

**Q.** Which “inhibition of LYPLA1” value (LYPLA1) does the source give for `CN(C)S(=O)(=O)c1cnn(C(=O)N2CCN(Cc3ccc(Cl)cc3)CC2)c1` [compound 5] here?
**A.** inhibition

**Q.** What about the “inhibition of ABHD17s” value (ABHD17s) of the same molecule?
**A.** confirmed inhibition

**Q.** And the “inhibition of LYPLA2” value (LYPLA2)?
**A.** inhibition

**Q.** Which results are given for `C[C@H]1CN(Cc2ccc(C(F)(F)F)cc2N2CCOCC2)CCN1C(=O)n1ccc(S(=O)(=O)N(C)C)n1` [compound 8]?
**A.** ABHD10 as off-target (ABHD10): introducing ABHD10; sustained inhibition of ABHD17A/B/C over 72 h (ABHD17A/B/C): did not produce sustained inhibition
